Test results from the supplement of paper PMC10733146.

Key:
Experiment in all cases: viability relative to DMSO control (fraction); higher = less drug effect (more viable cells)
Details in all cases: 48 h
[1] = compound: CC(C)N(CCCNC(=O)Nc1ccc(C(C)(C)C)cc1)C[C@H]1O[C@@H](n2cc(Br)c3c(N)ncnc32)[C@H](O)[C@@H]1O [SGC 0946]
Procedure, shortened: (§1)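 Cells were incubated for 48 h at 37 °C and 5% CO2 in RPMI-1640 with penicillin/streptomycin, L-glutamine and human serum, at 4 × 10^4 cells per well in 384-well plates with compounds pre-plated at five concentrations, one well each. These were primary mononuclear tumour cells, fresh or cryopreserved, Ficoll-isolated from blood or bone marrow or obtained from processed lymph node. Viability values are CellTiter-Glo luminescence relative to the median of 16 inner DMSO wells.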

[2] = compound: CC1(C)CCC(CN2CCN(c3ccc(C(=O)NS(=O)(=O)c4ccc(NCC5CCOCC5)c([N+](=O)[O-])c4)c(Oc4cnc5[nH]ccc5c4)c3)CC2)=C(c2ccc(Cl)cc2)C1 [Venetoclax]
Procedure, shortened: as §1

[3] = compound: CCN(c1cc(-c2ccc(CN3CCOCC3)cc2)cc(C(=O)NCc2c(C)cc(C)[nH]c2=O)c1C)C1CCOCC1 [EPZ-6438]
Procedure, shortened: as §1

[4] = compound: CCS(=O)(=O)N1CCC([C@@H](C)n2c(C)c(C(=O)NCc3c(OC)cc(C)[nH]c3=O)c3ccccc32)CC1 [CPI-169]
Procedure, shortened: as §1

[5] = compound: CC[C@]1(O)C[C@@H]2CN(CCc3c([nH]c4ccccc34)[C@@](C(=O)OC)(c3cc4c(cc3OC)N(C)[C@H]3[C@@](O)(C(N)=O)[C@H](O)[C@]5(CC)C=CCN6CC[C@]43[C@@H]65)C2)C1 [Vindesine]
Procedure, shortened: as §1

[6] = compound: CCc1ccc(/C=C2/SC(=S)NC2=O)cc1
Procedure, shortened: as §1

[7] = compound: CO[C@@H]1[C@H](N(C)C(=O)c2ccccc2)C[C@H]2O[C@]1(C)n1c3ccccc3c3c4c(c5c6ccccc6n2c5c31)C(=O)NC4 [Midostaurin hydrate]
Procedure, shortened: as §1

[8] = compound: CO[C@H]1C[C@@H]2CC[C@@H](C)[C@@](O)(O2)C(=O)C(=O)N2CCCC[C@H]2C(=O)O[C@H]([C@H](C)C[C@@H]2CC[C@@H](OCCO)[C@H](OC)C2)CC(=O)[C@H](C)/C=C(\C)[C@@H](O)[C@@H](OC)C(=O)[C@H](C)C[C@H](C)/C=C/C=C/C=C/1C [Everolimus]
Procedure, shortened: as §1

[9] = compound: COc1cc(C(=O)O)ccc1NC(=O)[C@@H]1N[C@@H](CC(C)(C)C)[C@](C#N)(c2ccc(Cl)cc2F)[C@H]1c1cccc(Cl)c1F [Idasanutlin (RS7388)]
Procedure, shortened: as §1

[10] = compound: C[C@@H]1CCN(C(=O)CC#N)C[C@@H]1N(C)c1ncnc2[nH]ccc12 [Tofacitinib]
Procedure, shortened: as §1

[11] = compound: C[C@H](NC(=O)CCC(F)(F)F)C(=O)N[C@@H]1C(=O)N(CCO)c2ncccc2-c2ccccc21
Procedure, shortened: as §1

[12] = compound: C[C@H]1C[C@@H](n2c(Nc3ccc(OC(F)(F)F)cc3)nc3cc(CCC(=O)O)ccc32)CC(C)(C)C1
Procedure, shortened: as §1

[13] = compound: c1cn2cc(-c3ccc4cn[nH]c4c3)nc(Nc3ccc(N4CCOCC4)cc3)c2n1 [Entospletinib]
Procedure, shortened: as §1

Test System: primary FL patient cells (S087)
- viability ([1]; 0.024 µM): 1.02
- viability ([1]; 0.12 µM): 0.957
- viability ([1]; 0.6 µM): 0.923
- viability ([1]; 3 µM): 0.967
- viability ([1]; 15 µM): 0.645
- viability ([2]; 0.00064 µM): 1.01
- viability ([2]; 0.0032 µM): 0.938
- viability ([2]; 0.016 µM): 0.74
- viability ([2]; 0.08 µM): 0.364
- viability ([2]; 0.4 µM): 0.0932
- viability ([3]; 0.024 µM): 1.02
- viability ([3]; 0.12 µM): 1.01
- viability ([3]; 0.6 µM): 1.03
- viability ([3]; 3 µM): 0.993
- viability ([3]; 15 µM): 0.93
- viability ([4]; 0.024 µM): 0.99
- viability ([4]; 0.12 µM): 1.01
- viability ([4]; 0.6 µM): 0.99
- viability ([4]; 3 µM): 1
- viability ([4]; 15 µM): 0.955
- viability ([5]; 0.016 µM): 0.87
- viability ([5]; 0.08 µM): 0.836
- viability ([5]; 0.4 µM): 0.728
- viability ([5]; 2 µM): 0.737
- viability ([5]; 10 µM): 0.637
- viability ([6]; 0.024 µM): 0.862
- viability ([6]; 0.12 µM): 0.862
- viability ([6]; 0.6 µM): 0.99
- viability ([6]; 3 µM): 0.923
- viability ([6]; 15 µM): 0.943
- viability ([7]; 0.024 µM): 0.997
- viability ([7]; 0.12 µM): 1.01
- viability ([7]; 0.6 µM): 1.04
- viability ([7]; 3 µM): 0.928
- viability ([7]; 15 µM): 0.795
- viability ([8]; 0.0032 µM): 0.882
- viability ([8]; 0.016 µM): 0.851
- viability ([8]; 0.08 µM): 0.859
- viability ([8]; 0.4 µM): 0.846
- viability ([8]; 2 µM): 0.867
- viability ([9]; 0.032 µM): 0.834
- viability ([9]; 0.16 µM): 0.877
- viability ([9]; 0.8 µM): 0.803
- viability ([9]; 4 µM): 0.694
- viability ([9]; 20 µM): 0.671
- viability ([10]; 0.024 µM): 0.972
- viability ([10]; 0.12 µM): 0.945
- viability ([10]; 0.6 µM): 0.978
- viability ([10]; 3 µM): 0.969
- viability ([10]; 15 µM): 1
- viability ([11]; 0.016 µM): 1.02
- viability ([11]; 0.08 µM): 1.02
- viability ([11]; 0.4 µM): 1.05
- viability ([11]; 2 µM): 1.03
- viability ([11]; 10 µM): 0.98
- viability ([12]; 0.024 µM): 0.885
- viability ([12]; 0.12 µM): 0.938
- viability ([12]; 0.6 µM): 0.904
- viability ([12]; 3 µM): 0.829
- viability ([12]; 15 µM): 0.93
- viability ([13]; 0.024 µM): 1.09
- viability ([13]; 0.12 µM): 1.01
- viability ([13]; 0.6 µM): 1.04
- viability ([13]; 3 µM): 1.06
- viability ([13]; 15 µM): 1.02

Test System: primary AML patient cells (S072)
- viability ([1]; 0.024 µM): 0.981
- viability ([1]; 0.12 µM): 0.932
- viability ([1]; 0.6 µM): 0.893
- viability ([1]; 3 µM): 0.847
- viability ([1]; 15 µM): 0.706
- viability ([2]; 0.00064 µM): 1.02
- viability ([2]; 0.0032 µM): 0.901
- viability ([2]; 0.016 µM): 0.832
- viability ([2]; 0.08 µM): 0.739
- viability ([2]; 0.4 µM): 0.659
- viability ([3]; 0.024 µM): 1.04
- viability ([3]; 0.12 µM): 1.29
- viability ([3]; 0.6 µM): 1.06
- viability ([3]; 3 µM): 1.16
- viability ([3]; 15 µM): 0.938
- viability ([4]; 0.024 µM): 0.941
- viability ([4]; 0.12 µM): 0.897
- viability ([4]; 0.6 µM): 0.953
- viability ([4]; 3 µM): 0.89
- viability ([4]; 15 µM): 0.88
- viability ([5]; 0.016 µM): 1.08
- viability ([5]; 0.08 µM): 0.943
- viability ([5]; 0.4 µM): 0.892
- viability ([5]; 2 µM): 0.776
- viability ([5]; 10 µM): 0.648
- viability ([6]; 0.024 µM): 0.797
- viability ([6]; 0.12 µM): 0.771
- viability ([6]; 0.6 µM): 0.851
- viability ([6]; 3 µM): 0.833
- viability ([6]; 15 µM): 0.825
- viability ([7]; 0.024 µM): 1.3
- viability ([7]; 0.12 µM): 1.01
- viability ([7]; 0.6 µM): 0.993
- viability ([7]; 3 µM): 0.87
- viability ([7]; 15 µM): 0.584
- viability ([8]; 0.0032 µM): 0.785
- viability ([8]; 0.016 µM): 0.744
- viability ([8]; 0.08 µM): 0.789
- viability ([8]; 0.4 µM): 0.758
- viability ([8]; 2 µM): 0.775
- viability ([9]; 0.032 µM): 0.77
- viability ([9]; 0.16 µM): 0.89
- viability ([9]; 0.8 µM): 0.846
- viability ([9]; 4 µM): 0.695
- viability ([9]; 20 µM): 0.763
- viability ([10]; 0.024 µM): 0.903
- viability ([10]; 0.12 µM): 0.859
- viability ([10]; 0.6 µM): 0.84
- viability ([10]; 3 µM): 0.776
- viability ([10]; 15 µM): 0.827
- viability ([11]; 0.016 µM): 1.08
- viability ([11]; 0.08 µM): 1.09
- viability ([11]; 0.4 µM): 0.931
- viability ([11]; 2 µM): 1.1
- viability ([11]; 10 µM): 1.06
- viability ([12]; 0.024 µM): 0.873
- viability ([12]; 0.12 µM): 0.965
- viability ([12]; 0.6 µM): 0.97
- viability ([12]; 3 µM): 0.82
- viability ([12]; 15 µM): 1.06
- viability ([13]; 0.024 µM): 1.02
- viability ([13]; 0.12 µM): 0.935
- viability ([13]; 0.6 µM): 0.986
- viability ([13]; 3 µM): 0.995
- viability ([13]; 15 µM): 0.917
